Data taken from article PMC7260336, “Identification of a species-specific aminotransferase in Pediococcus acidilactici capable of forming α-aminobutyrate” (AMB Express, 2020).

How the values were obtained:
[1] = target: T1, Aat (recombinant His-tagged aminotransferase) (Pediococcus acidilactici, UniProt E0NE36); experiment: coupled assay, glutamate formed measured with glutamate dehydrogenase/diaphorase; assay type: biochemical; conditions: amino donor; 5 mM amino acid, 10 mM alpha-ketoglutarate, 50 uM pyridoxal 5-phosphate, pH 5.5, 37 °C
T1 construct: gene aspC; full length, C-terminal His tag (pEXP5-CT/TOPO), E. coli BL21(DE3), Ni-TED purified; gene about 1200 bp; cloning primers translate to N-terminus MSDKVNA and native C-terminus LKAKRA; locus tag contradictory: primers designed for GBO44_RS03485 in Methods, GBO44_RS04865 in Results
T1 sequence (E0NE36 1-394): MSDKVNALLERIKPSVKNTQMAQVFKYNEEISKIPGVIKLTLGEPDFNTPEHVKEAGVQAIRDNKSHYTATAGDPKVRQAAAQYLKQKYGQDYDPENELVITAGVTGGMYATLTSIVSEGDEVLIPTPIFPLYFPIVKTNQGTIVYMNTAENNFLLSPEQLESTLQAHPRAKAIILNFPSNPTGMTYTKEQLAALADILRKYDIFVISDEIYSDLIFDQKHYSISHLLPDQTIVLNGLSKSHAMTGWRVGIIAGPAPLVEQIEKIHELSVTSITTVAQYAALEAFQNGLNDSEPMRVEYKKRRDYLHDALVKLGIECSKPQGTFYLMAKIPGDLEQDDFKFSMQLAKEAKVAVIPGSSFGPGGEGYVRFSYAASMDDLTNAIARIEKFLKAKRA

[2] = target: T1, Aat (recombinant His-tagged aminotransferase); experiment: HPLC of amino acids formed; assay type: biochemical; conditions: amino acceptor; leucine, AABA or alanine as amino donor, 50 uM pyridoxal 5-phosphate, pH 5.5, 37 °C, 1 h

For `CC(C)C[C@H](N)C(=O)O` [Leu, L-leucine], the “coupled assay, glutamate formed measured with glutamate dehydrogenase/diaphorase” value [1] was “the enzyme transferred the amino group from leucine, methionine, AABA, alanine, cysteine, and phenylalanine”.
With `CCC(=O)C(=O)O` [AKB, α-ketobutyrate] the “HPLC of amino acids formed” value [2] was “AKB, pyruvate, KMTB, KIC, and PPA significantly preferred amino group acceptors to AKG”.
